The results in this text go back to ChEMBL document CHEMBL6103672, “Discovery of HMPL-306 (Ranosidenib), a New Potent and Selective Dual Inhibitor of Mutant IDH1 and 2 in Clinical Development for Cancer Treatment” (ACS Med Chem Lett, 2025).

By Cmax is commonly meant the highest concentration seen after dosing. One may read the Papp A→B as the apparent permeability from the apical to the basolateral side of a cell layer. The half-life is the time in which the quantity being followed falls by half. A high value points to slow decline. Usually AUC(0-t) stands for exposure summed from dosing to a finite time, without extrapolation to infinity. High values mean high exposure, low ones low exposure. As usually defined, the Papp B→A is how fast a substance crosses the layer from the basolateral side. The clearance is the rate of elimination divided by the concentration. Read a low clearance as a low capacity for elimination. A word on the pIC50: it is −log10 of the IC50, conventionally taken in molar units. As a reminder, the AUC(0-inf) is total exposure, with the tail of the curve extrapolated. A lower AUC(0-inf) goes with low exposure. Usually inhibition stands for the percentage by which the read-out fell short of the control. Lower therefore signals a response near the control. The inhibition in vivo is the drop in the measured response relative to a control, in per cent. A lower inhibition in vivo goes with a response near the control.

pIC50: −log10 of the molar value.

Data set [1] is described as follows: Cmax in male ICR mouse at 10 mg/kg, po measured after 8 hrs by LC/MS/MS analysis. The settings on record: in vivo. It counts as ADME, organism-based.
Data set [2] in a line: Volume of distribution at steady state in male ICR mouse at 2.5 mg/kg, iv measured after 8 hrs by LC/MS/MS analysis. Particulars: in vivo, read-out: Vdss. It counts as ADME, organism-based.
Data set [3] in a line: Apparent permeability across apical to basolateral side in human Caco-2 cells at 10 uM incubated for 1 hrs by LC-MS/MS analysis. On the technique in general: Caco-2 cells form a polarised layer with tight junctions and transporters.
The nature of data set [4]: Metabolic stability in male ICR mouse liver microsomes assessed as parent compound remaining at 1 uM measured after 30 mins in presence of NADPH by LC-MS analysis. The format is ADME, Microsome. Particulars: read-out: Stability. (In general: Liver microsomes are vesicles of endoplasmic reticulum, rich in cytochrome P450 enzymes.)
A short description of data set [5]: Half life in male ICR mouse at 10 mg/kg, po measured after 8 hrs by LC/MS/MS analysis. The format is ADME, organism-based. Particulars: in vivo.
A short description of data set [6]: Oral bioavailability in male ICR mouse at 10 mg/kg measured after 8 hrs by LC/MS/MS analysis. It counts as ADME, organism-based. The settings on record: in vivo.
The nature of data set [7]: AUC(0 to t) in male ICR mouse at 10 mg/kg, po measured after 8 hrs by LC/MS/MS analysis. Particulars: in vivo. The format is ADME, organism-based.
Data set [8] can be described thus: Apparent permeability across basolateral to apical side in human Caco-2 cells at 10 uM incubated for 1 hrs by LC-MS/MS analysis.
The nature of data set [9]: Clearance in male ICR mouse at 2.5 mg/kg, iv measured after 8 hrs by LC/MS/MS analysis. The format is ADME, organism-based. Particulars: in vivo.
Data set [10] is described as follows: Inhibition of IDH2 R140Q mutant in human U-87 MG cells incubated for 72 hrs by measuring 2-HG production by fluorescence based analysis. The format is functional, cell-based, U-87MG ATCC. The settings on record: Homo sapiens, U-87 MG, 72 h.
A short description of data set [11]: Inhibition of IDH1 R132H mutant in human U-87 MG cells incubated for 72 hrs by measuring 2-HG production by fluorescence based analysis. The format is functional, cell-based, U-87MG ATCC. Particulars: Homo sapiens, U-87 MG, 72 h.
Data set [12] in a line: Metabolic stability in male SD rat liver microsomes assessed as parent compound remaining at 1 uM measured after 30 mins in presence of NADPH by LC-MS analysis. It counts as ADME, Microsome. Particulars: Sprague-Dawley, read-out: Stability.
Data set [13] is described as follows: AUC(0 to infinity) in male ICR mouse at 10 mg/kg, po measured after 8 hrs by LC/MS/MS analysis. It counts as ADME, organism-based. Particulars: in vivo.
Data set [14] in a line: Inhibition of IDH2 R172K mutant in human HEK293 cells incubated for 72 hrs by measuring 2-HG production by fluorescence based analysis. The settings on record: HEK293, 72 h. It counts as functional, cell-based.
For data set [15], the target named is T1, Adenosine receptor A3 (Homo sapiens, UniProt P0DMS8).
T1 sequence (P0DMS8 whole entry): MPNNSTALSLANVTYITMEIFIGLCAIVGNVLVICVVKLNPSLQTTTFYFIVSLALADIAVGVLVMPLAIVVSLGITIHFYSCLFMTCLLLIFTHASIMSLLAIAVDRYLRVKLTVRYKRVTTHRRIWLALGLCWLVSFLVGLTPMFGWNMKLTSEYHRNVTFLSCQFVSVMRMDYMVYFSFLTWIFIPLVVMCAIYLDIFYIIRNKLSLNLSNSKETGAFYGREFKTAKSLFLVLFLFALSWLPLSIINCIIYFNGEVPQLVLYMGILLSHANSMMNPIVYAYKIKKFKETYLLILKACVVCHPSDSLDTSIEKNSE
As to the kind of experiment: Inhibition of adenosine A3 receptor (unknown origin). The format is toxicity.

A short description of data set [16]: Inhibition of IDH2 R140Q mutant in human TF-1 cells incubated for 72 hrs by measuring 2-HG production by fluorescence based analysis. It counts as functional, cell-based. The settings on record: TF-1, 72 h.
Data set [17] in a line: AUC(0 to t) in male ICR mouse at 10 mg/kg, po measured upto 24 hrs by LC/MS/MS analysis. It counts as ADME, organism-based. The settings on record: in vivo.
Data set [18] in a line: In vivo inhibition of 2-HG in BALB/c nude mouse xenografted with human U-87 MG cells harboring IDH2 R140Q mutant at 25 mg/kg, po measured after 40 hrs post dose. The format is functional. Background: Xenograft models place foreign cells or tissue in a host animal.
A short description of data set [19]: In vivo inhibition of 2-HG in BALB/c nude mouse xenografted with human U-87 MG cells harboring IDH2 R140Q mutant at 25 mg/kg, po measured after 24 hrs post dose. It counts as functional.
Data set [20] addresses Isocitrate dehydrogenase [NADP], mitochondrial (Homo sapiens, UniProt P48735, R140Q). As to the kind of experiment: Inhibition of IDH2 R140Q mutant (unknown origin) using alpha-ketoglutarate as substrate preincubated with compound for 16 hrs followed by substrate addition and measured after 1 hr in presence of NADPH by fluorescence based analysis.
Data set [21] deals with T2, UGT1A1 (Homo sapiens, UniProt P22309).
T2 sequence (P22309 whole entry): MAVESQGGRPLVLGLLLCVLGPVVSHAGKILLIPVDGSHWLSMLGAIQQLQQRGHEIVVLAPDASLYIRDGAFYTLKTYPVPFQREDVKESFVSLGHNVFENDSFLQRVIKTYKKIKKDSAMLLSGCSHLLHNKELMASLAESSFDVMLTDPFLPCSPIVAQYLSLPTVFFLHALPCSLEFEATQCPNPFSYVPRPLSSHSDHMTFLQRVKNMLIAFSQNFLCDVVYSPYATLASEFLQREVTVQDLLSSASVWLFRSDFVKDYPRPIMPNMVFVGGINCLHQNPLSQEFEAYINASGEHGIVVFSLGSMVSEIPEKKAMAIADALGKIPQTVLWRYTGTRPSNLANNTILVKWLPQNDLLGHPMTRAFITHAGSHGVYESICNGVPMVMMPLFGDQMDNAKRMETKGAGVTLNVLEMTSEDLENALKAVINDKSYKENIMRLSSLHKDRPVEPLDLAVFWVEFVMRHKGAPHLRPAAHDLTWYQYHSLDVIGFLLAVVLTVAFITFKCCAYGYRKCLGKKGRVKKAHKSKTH
As to the kind of experiment: Inhibition of UGT1A1 (unknown origin) at 10 uM relative to control. It counts as ADME.

Data set [22] is described as follows: Inhibition of IDH1 R132C mutant in human HT-1080 cells incubated for 72 hrs by measuring 2-HG production by fluorescence based analysis. The format is functional, cell-based. The settings on record: HT-1080, 72 h.
Data set [23] can be described thus: In vivo inhibition of 2-HG in BALB/c nude mouse xenografted with human HT-1080 cells harboring IDH1 R132C mutant at 50 mg/kg, po measured after 40 hrs post dose. It counts as functional.
The nature of data set [24]: In vivo inhibition of 2-HG in BALB/c nude mouse xenografted with human HT-1080 cells harboring IDH1 R132C mutant at 50 mg/kg, po measured after 24 hrs post dose. The format is functional.
Data set [25] in a line: Inhibition of IDH1 R132H mutant in human TF-1 cells incubated for 72 hrs by measuring 2-HG production by fluorescence based analysis. Particulars: TF-1, 72 h. The format is functional, cell-based.
A short description of data set [26]: Ratio of drug concentration in brain to plasma of BALB/c nude mouse xenografted with human U-87 MG cells harboring IDH2 R140Q mutant at 50 mg/kg measured after 24 hrs by LC/MS/MS analysis. The settings on record: read-out: BPR. The format is ADME, organism-based.
Data set [27] is described as follows: Ratio of drug concentration in brain to plasma of BALB/c nude mouse xenografted with human U-87 MG cells harboring IDH2 R140Q mutant at 50 mg/kg measured after 16 hrs by LC/MS/MS analysis. The format is ADME, organism-based. The settings on record: read-out: BPR.

Isocitrate dehydrogenase [NADP], mitochondrial, sequence (P48735 40-452 R140Q limits assumed): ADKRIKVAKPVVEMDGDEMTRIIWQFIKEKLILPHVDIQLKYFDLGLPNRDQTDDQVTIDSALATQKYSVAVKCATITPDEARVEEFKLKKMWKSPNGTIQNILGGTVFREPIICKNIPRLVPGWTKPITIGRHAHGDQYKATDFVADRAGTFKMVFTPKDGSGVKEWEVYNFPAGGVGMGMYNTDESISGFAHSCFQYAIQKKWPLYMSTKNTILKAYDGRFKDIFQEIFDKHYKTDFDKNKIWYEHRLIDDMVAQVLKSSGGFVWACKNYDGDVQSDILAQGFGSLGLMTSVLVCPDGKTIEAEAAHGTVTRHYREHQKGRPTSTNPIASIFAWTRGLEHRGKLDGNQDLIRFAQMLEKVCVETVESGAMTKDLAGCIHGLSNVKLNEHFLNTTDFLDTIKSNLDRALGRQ

The compound `C[C@@H](Nc1nc(N[C@H](C)C(F)(F)F)nc(C2=C(F)[C@@H](O)CCC2)n1)C(F)(F)F` came in with a Cmax in data set [1] of 4950 ng/mL. Further, the Vd in data set [2] is 1.16 L/kg. Further, the Papp A→B at 1 h, 10 µM in [3] came to 46.8 ×10⁻⁶ cm/s. In addition, the remaining at 0.5 h, 1 µM in [4] is 86.2%; in [12] it was 92.7%. In [5], this compound showed a half-life of 2 h. Further, the bioavailability in data set [6] is 134%. For the same compound, the AUC(0-t) at 8 h in [7] worked out at 14800 ng·h/mL. In addition, the basolateral-to-apical permeability (Papp B→A) at 1 h, 10 µM in data set [8] was 25.9 ×10⁻⁶ cm/s. Further, the clearance in data set [9] came to 14.1 mL/min/kg. The pIC50 in [10] is 7.38; in data set [11], 7.00. Further, the AUC(0-inf) in data set [13] amounted to 15800 ng·h/mL.
The compound `CC(C)(O)CNc1nc(Nc2ccnc(C(F)(F)F)c2)nc(-c2cccc(C(F)(F)F)n2)n1` [ENASIDENIB] returned a Cmax in data set [1] of 1870 ng/mL. Besides, the Vd in [2] stood at 1.72 L/kg. Further, the half-life in data set [5] is 3.3 h. Moreover, the pIC50 in data set [14] is 5.29; in [15], 7.92; in [10], 7.37; in [16], 7.26; in data set [20], 7.43. Further, the bioavailability in [6] turned out to be 95.1%. Also, the clearance in data set [9] came to 6.9 mL/min/kg. In addition, in [17], the AUC(0-t) at 24 h was determined as 22900 ng·h/mL. Besides, the “inhibition (INH)” value in data set [18] amounted to 37%; in data set [19], 87%. In addition, in [21], the inhibition at 10 µM is 76.1%. Besides, the AUC(0-inf) in [13] came out at 23000 ng·h/mL.
Turning to `N#Cc1ccnc(N2C(=O)CC[C@H]2C(=O)N(c2cncc(F)c2)[C@H](C(=O)NC2CC(F)(F)C2)c2ccccc2Cl)c1` [IVOSIDENIB], the results for the pIC50 in [22], in data set [11] and in data set [25] were 8.05, 7.49 and 7.17, respectively. The same compound came in with a Cmax in data set [1] of 1270 ng/mL. The Vd in data set [2] stood at 1.94 L/kg. In addition, the half-life in data set [5] was 2.6 h. The bioavailability in data set [6] was determined as 64.5%. This compound also yielded a clearance in data set [9] of 15.2 mL/min/kg. Besides, the inhibition in vivo at 50 mg/kg in [23] amounted to 50%; in [24], 78%. In addition, in [17], the AUC(0-t) at 24 h turned out to be 7090 ng·h/mL. In addition, the total exposure AUC(0-inf) in data set [13] amounted to 7100 ng·h/mL.
With `C[C@@H](Nc1nc(N[C@H](C)C(F)(F)F)nc(-c2cccc(Cl)n2)n1)C(F)(F)F` [VORASIDENIB], the Kp at 24 h in data set [26] is 1.2. The Kp at 16 h in data set [27] came out at 1.4.
